Experimental data reported in paper PMC8639922, “KSHV transactivator-derived small peptide traps coactivators to attenuate MYC and inhibits leukemia and lymphoma cell growth” (Communications Biology, 2021).
Square brackets hold non-standard residues; d marks the D form. Peptide text beside a SMILES is read from it. Orn = NCCC[C@H](N)C(=O)O; βAla = NCCC(=O)O

Assays:
Type in all cases: cell-based, human
[1] = test system: BC-1; assay: Flow cytometry, cell proliferation (Ki67 staining); conditions: BC-1, 24 h
Experimental: (§1) Leukoreduction system chambers (LRS) from healthy donors were purchased from Vitalant. Peripheral blood mononuclear cells (PBMCs) were prepared by a standard Ficoll gradient method. PBMCs along with THP-1 and BCBL-1 cell lines (2 × 10^6 cells/ml, 0.2 ml 10% FBS/RPMI/DMEM per well of a 96-well plate) were treated with various doses (0–256 μM) of either VGN50 peptide or control mutant peptide for 24 h. Cell death, apoptosis, and proliferation were analyzed by flow cytometry (BD Acuri) after intracellular staining with anti-humanKi67-Alexa488 (Biolegend, 1:100) along with the isotype control antibody, annexin-V-FITC with 7-AAD staining (Biolegend) according to the manufacture’s protocol, Live/dead Fixable Red Dead Cell staining kit (Invitrogen) according to the manufacture’s protocol, or MTT assay. Peptides were commercially synthesized (GenScript) with >90% purity with TFA removal. […]
(§2) Isotype control Anti-Ki67 antibody
(§3) S-Figure 3. Flow cytometry analyses […]
(§4) Repr esent at i ve FACS pl ot s wi t h ancest r y gat i ng st r at egy of Ki 67+ popul at i on f or
(§5) BCBL-1 and BC-1 cel l s t r eat ed wi t h PBS wi t h an i sot ype cont r ol ar e shown. Mean +/-SD of
(§6) Ki 67% of t ot al BCBL-1 and BC-1 cel l s anal yzed ar e shown i n Fi g. 2e.

[2] = test system: BCBL-1; assay: Flow cytometry, cell proliferation (Ki67 staining); conditions: BCBL-1, 24 h
Experimental: as §1, §2, §3, §4, §5, §6

[3] = test system: MYC promoter and putative enhancer regions; assay: CUT&RUN qPCR, H3K27Ac modification; parameters: key: enrichment normalized to spiked-in luciferase plasmid DNA control; conditions: spiked-in luciferase plasmid control
Excerpt: We next examined the molecular mechanism of MYC down-regulation by VGN50. We first utilized Cleavage under targets & release using nuclease (CUT&RUN)-sequencing to examine histone modifications that are known to be associated with enhancers in order to map putative MYC enhancer regions in PEL cells (Fig. 5a). Genome-wide CUT&RUN studies identified putative enhancer and promoter regulatory regions that are marked by H3K27Ac, H3K4me1, POLR2A (RNAPII), BRD4, and SMARCC1, a component of the SWI/SNF complex (Fig. 1b and 5a). The identified putative MYC enhancers were also in good agreement with previous ChIP Hi-C[53] and ChIP-seq data sets[54]. Specific primer pairs were then designed to amplify the respective enhancer regions and to examine regulation of coactivator complex recruitment by VGN50.
Fig. 5 A molecular mechanism of VGN50-mediated MYC-down-regulation. a Cleavage under targets & release using nuclease (CUT&RUN). CUT&RUN was performed with BCBL-1 and BC-1 with the indicated antibodies. Enrichment of active histone modifications, and occupancies of RNAPII and SWI/SNF components at the MYC genomic region are shown as peaks. One of the biological duplicate samples for the BCBL-1 cell line is presented. […] The MYC promoter, enhancer, and negative control regions used for qPCR analyses are indicated with shading. The positions of the MYC coding region, CASC11 coding region, and long non-coding RNA, PVT1, MIR1208 are shown in the panel. b VGN50 inhibits coactivator complex recruitment and c reduces H3K27Ac modification. qPCR is used to examine enrichment of DNA fragments in the presence of VGN50 or mutant peptide (24 μM). Peptide was applied 1 h prior to processing samples for CUT&RUN to replicate SLAM-seq experimental conditions. Non-specific IgG control was also included and enrichment with IgG control at each genomic region was set as 1 for b, and spiked-in luciferase plasmid DNA was used for additional internal control for c. d Formation of a larger protein complex with VGN50. Sucrose gradient sedimentation was used to monitor changes in protein complex formation in the presence of VGN50. The experiment flow chart is shown at the top of this panel. Fractions were collected from top (#1) to bottom (#23/24). Sample #24 without peptide is a smaller fraction of residual samples. Immunoblotting was performed on the odd number samples and the remaining fraction (#24 for no peptide sample) and probed with Flag-tagged SWI/SNF components (SMARCA4, SMARCC2, and SMARCB1). The position of each protein component based on molecular size is indicated. e KSHV K-Rta colocalizes with SWI/SNF components in reactivating BCBL-1 cells. TREx-BCBL-1 cells were triggered for reactivation by treatment with Dox and TPA for 28 h and stained with the indicated antibodies. Images were acquired with Keyence fluorescence microscopy. f A model for VGN50 molecular action. A model depicting the putative molecular action of VGN50 is presented. Coactivator complexes are dynamically assembled on enhancer and promoter regions via transcription factor binding. VGN50, an IDR fragment derived from an exceptionally potent viral transactivator, flexibly interacts with components of coactivators and traps them, thus reduces the available resources for cellular enhancers to activate MYC promoters.
CUT&RUN[72] was performed essentially by following the online protocol developed by Dr. Henikoff’s lab with a few modifications to fit our needs. Cells were washed with PBS and wash buffer [20 mM HEPES-KOH pH 7.5, 150 mM NaCl, 0.5 mM Spermidine (Sigma, S2626), and proteinase inhibitor (Roche)]. After removing the wash buffer, cells were captured on magnetic concanavalin A (ConA) beads (Polysciences, PA, USA) in the presence of CaCl2. […]

CC(C)C[C@H](NC(=O)CCNC(=O)[C@H](CCCNC(=N)N)NC(=O)[C@H](CCCNC(=N)N)NC(=O)[C@H](CCCNC(=N)N)NC(=O)[C@H](CCCN)NC(=O)[C@H](CCCNC(=N)N)NC(=O)[C@H](CCCNC(=N)N)NC(=O)[C@H](CCCCN)NC(=O)[C@H](CCCCN)NC(=O)[C@H](N)CCCNC(=N)N)C(=O)N[C@@H](CO)C(=O)N[C@@H](CO)C(=O)N[C@@H](C)C(=O)N[C@@H](C)C(=O)N[C@@H](C)C(=O)NCC(=O)N[C@@H](CC(C)C)C(=O)N[C@@H](Cc1ccc(O)cc1)C(=O)N[C@@H](CCC(N)=O)C(=O)N[C@@H](CC(C)C)C(=O)N[C@@H](CC(=O)O)C(=O)N[C@H](C(=O)O)[C@@H](C)O [Mt-P] (H-[dR]KKRR[Orn]RRR[βAla]LSSAAAGLYQLDT-OH; N-terminus and C-terminus assumed)
Ki67% ([1]; replicate 1): 43.3912%
Ki67% ([1]; replicate 2): 42.2259%
Ki67% ([1]; replicate 3): 43.3434%
Ki67% ([2]; replicate 1): 33.8765%
Ki67% ([2]; replicate 2): 32.9445%
Ki67% ([2]; replicate 3): 29.2345%
H3K27Ac enrichment, CUT&RUN qPCR ([3]; region Cont., peptide 24 μM 1 h, replicate 1): 1.234
H3K27Ac enrichment, CUT&RUN qPCR ([3]; region Cont., peptide 24 μM 1 h, replicate 2): 1.768
H3K27Ac enrichment, CUT&RUN qPCR ([3]; region Cont., peptide 24 μM 1 h, replicate 3): 1.486
H3K27Ac enrichment, CUT&RUN qPCR ([3]; region E3, peptide 24 μM 1 h, replicate 1): 2.706
H3K27Ac enrichment, CUT&RUN qPCR ([3]; region E3, peptide 24 μM 1 h, replicate 2): 2.727
H3K27Ac enrichment, CUT&RUN qPCR ([3]; region E3, peptide 24 μM 1 h, replicate 3): 2.006
H3K27Ac enrichment, CUT&RUN qPCR ([3]; region E4, peptide 24 μM 1 h, replicate 1): 25.383
H3K27Ac enrichment, CUT&RUN qPCR ([3]; region E4, peptide 24 μM 1 h, replicate 2): 24.888
H3K27Ac enrichment, CUT&RUN qPCR ([3]; region E4, peptide 24 μM 1 h, replicate 3): 21.090
H3K27Ac enrichment, CUT&RUN qPCR ([3]; region E5, peptide 24 μM 1 h, replicate 1): 8.581
H3K27Ac enrichment, CUT&RUN qPCR ([3]; region E5, peptide 24 μM 1 h, replicate 2): 8.863
H3K27Ac enrichment, CUT&RUN qPCR ([3]; region E5, peptide 24 μM 1 h, replicate 3): 8.913
H3K27Ac enrichment, CUT&RUN qPCR ([3]; region P1, peptide 24 μM 1 h, replicate 1): 6.685
H3K27Ac enrichment, CUT&RUN qPCR ([3]; region P1, peptide 24 μM 1 h, replicate 2): 5.570
H3K27Ac enrichment, CUT&RUN qPCR ([3]; region P1, peptide 24 μM 1 h, replicate 3): 7.094
